Values of other authors, collected in patent US20250334554A1, “ANALYTICAL METHOD FOR QUANTIFYING SUCRALOSE-6-ACETATE CONTENT” (Avazyme, Inc., priority 2024, published 2025).
Peptide text beside a SMILES is read from it.

Tests used:
humans = details: 2023, Riboli et al.
[1] = Schiffman et al. 2023

Compound	IARC carcinogenicity classification (humans)	consumption level at which may be genotoxic [1]
COC(=O)[C@H](Cc1ccccc1)NC(=O)[C@@H](N)CC(=O)O [aspartame] (H-Asp-Phe-OMe)	possibly carcinogenic to humans (Group 2B)	
CC(=O)OC[C@H]1O[C@H](O[C@]2(CCl)O[C@H](CCl)[C@@H](O)[C@@H]2O)[C@H](O)[C@@H](O)[C@H]1Cl [sucralose-6-acetate]		0.15 µg/day
